Measurements from patent US20080194636A1, “Enzyme Inhibitors and Uses Thereof” (Howard Florey Institute Of Experimental Physiology And …, priority 2004, published 2008).

How the values were obtained:
3T3-L1 cells = details: 0.1 and 1 uM; basal and insulin (0.7 nM) stimulated; cited from earlier work
[1] = target: T1, insulin-regulated aminopeptidase (IRAP) (Homo sapiens, UniProt Q9UIQ6); assay: In vitro enzymatic assay for inhibitors of IRAP (hydrolysis of Leu-MCA, fluorescence); type: biochemical; details: recombinant full length human IRAP from transfected HEK293 cells; substrate Leu-MCA
T1 construct: containing the cDNA encoding the full length human RAP were utilised; made in house; host or cells: HEK293 cells transfected with pcDNA-3
Method: An in vitro enzymatic assay was used for screening for compounds which inhibit IRAP activity. The assay used an aminopeptidase substrate (leucine 4-methylcoumaryl-7-amide), a source of IRAP-containing material, and a candidate inhibitor.
IRAP-containing material was incubated with a synthetic aminopeptidase substrate, such as Leu-MCA (leucine 4-methylcoumaryl-7-amide), and a test substance. Inhibition of the rate of degradation of the synthetic substrate was taken as a measure of the inhibitory effect of the test substance.
As a source of recombinant IRAP, HEK293 cells transfected with a eukaryotic expression vector pcDNA-3 containing the cDNA encoding the full length human RAP were utilised. The assay system involved the measurement of the rate of hydrolysis of Leu-MCA by RAP. […] Candidate test compounds were added to the assay system, and their effects on the hydrolysis of Leu-MCA were taken to be direct indicators of their ability to inhibit IRAP activity.

[2] = tested on: scopolamine-induced memory deficit; assay: Scopolamine-induced memory deficit model, inhibitory avoidance paradigm; type: in vivo, rat; details: rats, following scopolamine, retrieval trial 24 h later, vs scopolamine followed by vehicle
Method: The effect of IRAP inhibitor Compound 1 on scopolamine-induced amnesia was tested in the inhibitory avoidance paradigm.
The inhibitory avoidance box is made up of two chambers, a smaller light compartment and a larger darken compartment and the test comprises of two trials. The first training trial involves placing the rat in the light compartment facing the wall and as soon as it runs to the end of the dark compartment and turns around, an electric shock of 0.6 mA is administered for 2 s and the animal is left in the dark compartment for a total of 15 s before being returned to its home cage. After a 24 h interval, the animal is then tested again and the latency in entering the dark chamber is a measure of the ability of the animal to remember the aversive stimulus. To test for the effect of the IRAP inhibitors, the rats were implanted with a chronic indwelling cannula into the lateral ventricles 1 week before the behavioural experiments. On the day of the testing, 15 min before the training trial, the rats were injected with either […] scopolamine hydrobromide dissolved in 2 ul of 0.9% saline or 0.9% saline before being placed in the inhibitory avoidance box for the training trial. Immediately after the training trial, the rats were injected with either 0.2 or 2 nmol of compound 1 (from Example 1) dissolved in 2 ul of 10% DMSO or vehicle control. […]

T1 sequence (Q9UIQ6 whole entry): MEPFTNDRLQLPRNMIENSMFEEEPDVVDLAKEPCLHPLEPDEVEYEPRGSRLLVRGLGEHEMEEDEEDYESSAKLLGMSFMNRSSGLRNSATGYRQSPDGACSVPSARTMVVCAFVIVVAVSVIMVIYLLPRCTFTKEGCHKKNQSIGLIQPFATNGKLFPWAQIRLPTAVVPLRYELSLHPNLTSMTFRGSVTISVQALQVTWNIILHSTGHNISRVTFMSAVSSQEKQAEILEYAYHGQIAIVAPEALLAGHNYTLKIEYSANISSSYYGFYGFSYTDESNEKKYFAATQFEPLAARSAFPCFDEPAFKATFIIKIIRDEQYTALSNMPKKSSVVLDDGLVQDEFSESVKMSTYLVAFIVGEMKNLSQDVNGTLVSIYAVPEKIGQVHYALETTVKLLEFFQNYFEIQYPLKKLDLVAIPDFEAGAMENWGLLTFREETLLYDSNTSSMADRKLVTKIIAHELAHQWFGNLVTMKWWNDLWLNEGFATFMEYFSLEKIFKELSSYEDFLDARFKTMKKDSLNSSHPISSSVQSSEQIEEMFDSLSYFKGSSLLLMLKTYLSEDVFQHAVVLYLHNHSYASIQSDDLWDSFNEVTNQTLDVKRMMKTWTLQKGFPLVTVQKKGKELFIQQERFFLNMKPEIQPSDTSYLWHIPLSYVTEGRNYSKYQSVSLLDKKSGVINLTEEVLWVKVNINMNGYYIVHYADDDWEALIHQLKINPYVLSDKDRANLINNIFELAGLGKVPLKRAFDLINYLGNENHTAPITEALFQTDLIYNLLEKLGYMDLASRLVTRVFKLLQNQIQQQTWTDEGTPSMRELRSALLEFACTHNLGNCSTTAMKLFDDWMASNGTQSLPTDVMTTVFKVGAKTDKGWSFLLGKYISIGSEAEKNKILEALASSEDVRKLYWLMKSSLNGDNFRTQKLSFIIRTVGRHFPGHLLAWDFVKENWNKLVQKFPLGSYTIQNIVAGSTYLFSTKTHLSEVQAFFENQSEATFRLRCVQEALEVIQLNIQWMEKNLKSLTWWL

Row | Compound | glucose uptake (3T3-L1 cells) | IC50 [1] | latency in entering the dark chamber ([2]; 0.2 nmol icv immediately after training trial) | latency in entering the dark chamber ([2]; 2 nmol icv immediately after training trial)
1 | CC[C@H](C)[C@H](NC(=O)[C@H](Cc1ccc(O)cc1)NC(=O)[C@@H](N)C(C)C)C(=O)N[C@@H](Cc1cnc[nH]1)C(=O)N1CCC[C@H]1C(=O)N[C@@H](Cc1ccccc1)C(=O)O [Ang IV] | enhance |  |  | 
2 | CCOC(=O)C1=C(N)Oc2cc(O)ccc2C1c1cccnc1 (stereo not shown) [Compound 1] |  | 4 µM | increased latencies | increased latencies
3 | CCOC(=O)C1=C(N)Oc2cc(O)ccc2C1c1cccc(Cl)c1 (stereo not shown) [Compound 2] |  | 42 µM |  | 
4 | COc1ccc(C2C(C#N)=C(N)Oc3cc(O)ccc32)cc1OC (stereo not shown) [Compound 3] |  | 45 µM |  | 
5 | COc1ccc(C2C(C#N)=C(N)Oc3cc(O)ccc32)cc1 (stereo not shown) [Compound 9] |  | 80 µM |  | 
